Results as given in patent US11530186B2, “Inhibitors for the β-catenin / T-cell factor protein-protein interaction” (H. LEE MOFFITT CANCER CENTER AND RESEARCH INSTITUTE, INC., priority 2018, dated 2022).
Like-named read-outs stand apart in the source and are kept apart here.

Columns and labels:
[1] = test system: Wnt/β-catenin transactivation; assay: Wnt-responsive TOPFlash luciferase reporter assay, β-catenin-activated HEK cells; assay type: cell-based; conditions: HEK293, read-out: TOPFlash IC50 ± SD, β-catenin-activated HEK293, 24 h treatment, mean ± SD (n = 3), read-out: TOPFlash IC50 ± SD, β-catenin-activated HEK239
Method: Cell Transfection and Luciferase Assay. FuGENE 6 (E2962, Promega) in the 96-well plate format was used for the transfection of HEK293 cells according to the manufacturer's instructions. HEK293 cells were co-transfected with 45 ng of the TOPFlash or FOPFlash reporter gene, and 135 ng of pcDNA3.1-β-catenin. Cells were cultured in DMEM and 10% fatal bovine serum (FBS) at 37° C. for 24 h, and different concentrations of inhibitors were then added. After 24 h, the luciferase reporter activity was measured using the Dual-Glo system (E2940, Promega). Normalized luciferase activity in response to the treatment with the inhibitors was compared with that obtained from the cells treated with DMSO. Experiments were performed in triplicate.

[2] = molecular target: T1, β-catenin/Tcf protein-protein interaction (Homo sapiens, UniProt P35222); assay: FP competitive inhibition assay; assay type: binding
T1 construct: Wild-type β-catenin (residues 138-781) were cloned into a pET-28b vector; 6×histidine (C); made in house; host or cells: E. coli BL21 DE3
T1 sequence (P35222 138-781): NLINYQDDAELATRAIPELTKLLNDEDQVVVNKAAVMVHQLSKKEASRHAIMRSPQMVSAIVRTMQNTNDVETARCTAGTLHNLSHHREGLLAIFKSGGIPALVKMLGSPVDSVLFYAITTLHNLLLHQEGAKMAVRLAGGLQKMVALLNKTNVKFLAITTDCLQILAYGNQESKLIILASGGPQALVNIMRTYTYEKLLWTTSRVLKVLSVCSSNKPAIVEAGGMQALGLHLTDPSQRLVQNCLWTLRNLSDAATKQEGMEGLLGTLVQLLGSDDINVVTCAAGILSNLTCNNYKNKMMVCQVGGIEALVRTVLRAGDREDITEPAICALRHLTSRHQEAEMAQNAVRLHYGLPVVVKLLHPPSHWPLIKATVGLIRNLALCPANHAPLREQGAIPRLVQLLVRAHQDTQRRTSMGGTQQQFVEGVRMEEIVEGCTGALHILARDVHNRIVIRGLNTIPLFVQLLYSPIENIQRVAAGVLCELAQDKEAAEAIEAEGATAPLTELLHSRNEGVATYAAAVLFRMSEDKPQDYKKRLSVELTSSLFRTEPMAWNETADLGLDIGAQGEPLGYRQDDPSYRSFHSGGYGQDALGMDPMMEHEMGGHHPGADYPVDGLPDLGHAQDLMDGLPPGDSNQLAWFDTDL
Method in brief: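 His-tagged human β-catenin (residues 138-781, E. coli-expressed) at 10 nM with 2.5 nM fluorescein-labeled Tcf4 (7-51) in PBS-type buffer with bovine γ-globulin and 0.01% Triton X-100. Compounds added, 1.5 h at 4 °C, 1% DMSO, before fluorescence polarization read. IC50 by nonlinear fit; Ki derived from IC50.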

[3] = test system: SW480 cells; assay: MTS cell viability assay, SW480; assay type: cell-based; conditions: mean ± SD (n = 3)
Method: (§1) MTS Cell Viability Assay. Colorectal cancer cells (SW480 and HCT116), TNBC cells (MDA-MB-231, MDA-MB-468, and BT-20), and lung cancer A549 cells were seeded in 96-well plates at 5×10^3 cells/well, maintained overnight at 37° C., and incubated with the tested compounds at various concentrations. Cell viability was monitored after 72 h using a freshly prepared mixture of 1 part phenazine methosulfate (PMS, Sigma) solution (0.92 mg/mL) and 19 parts 3-(4,5-dimethylthiazol-2-yl)-5-(3-carboxymethoxyphenyl)-2-(4-sulfophenyl)-2H-tetrazolium (MTS, Promega) solution (2 mg/mL). Cells were incubated in 10 μL of this solution at 37° C. for 3 h, and A490 was measured. The effect of each compound is expressed as the concentration required to reduce A490 by 50% (IC50) relative to DMSO-treated cells. Experiments were performed in triplicate.

[4] = test system: HCT116 cells; assay: MTS cell viability assay, HCT116; assay type: cell-based; conditions: Homo sapiens, HCT-116; 72 h; mean ± SD (n = 3); Table 5; read-out: MTS cell viability IC50, Wnt hyperactive cancer cells HCT116
Method: as §1

[5] = test system: A549 cells; assay: MTS cell viability assay, A549; assay type: cell-based; conditions: Homo sapiens, 72 h, mean ± SD (n = 3), Table 4, read-out: MTS cell viability IC50, Wnt normal A549
Method: as §1

[6] = test system: Wnt/β-catenin transactivation; assay: Wnt-responsive TOPFlash luciferase reporter assay, SW480; assay type: cell-based; conditions: Homo sapiens, mean ± SD (n = 3), Table 6
[7] = Assay 1, mean ± SD (n = 3), read-out: Ki ± SD, Assay 1
[8] = Assay 2, mean ± SD (n = 3), read-out: Ki ± SD, Assay 2
[9] = Assay 3, mean ± SD (n = 3), read-out: Ki ± SD, Assay 3
[10] = Homo sapiens, SW480, 72 h, Table 5, read-out: MTS cell viability IC50, Wnt hyperactive cancer cells SW480
[11] = Homo sapiens, SW480, 72 h, Table 4, read-out: MTS cell viability IC50, Wnt hyperactive SW480 Cells (converted)

| IC50 ([1]; Table 7) | Ki [2, 7] | Ki [2, 8] | Ki [2, 9] | IC50 [3, 10] | IC50 [4] | IC50 [3, 11] | IC50 ([1]; Table 6) | Ki ([2]; Assay 4, mean ± SD (n = 3), read-out: Ki ± SD, Assay 4) | IC50 [6] | IC50 ([3]; 72 h, Table 4, read-out: MTS cell viability IC50, Wnt hyperactive SW480 Cells (converted)) | Compound | IC50 [5] |
| --- | --- | --- | --- | --- | --- | --- | --- | --- | --- | --- | --- | --- |
| 9.9 ± 1.5 µM | 2.7 ± 0.26 µM | 4.9 ± 0.36 µM | 26 ± 2.7 µM | 32 ± 3.6 µM | 46 ± 5.3 µM | – | – | – | – | – | Cc1ccc(CCc2c(-c3csc(C(F)F)c3)n(CCc3nn[nH]n3)c3ccc(C(=O)NCc4ccon4)cc23)cc1 [Compound 94, 1-(2-(2H-tetrazol-5-yl)ethyl)-2-(5-(difluoromethyl)thiophen-3-yl)-N-(isoxazol-3-ylmethyl)-3-(4-methylphenethyl)-1H-indole-5-carboxamide] | – |
| – | 2.6 ± 0.57 µM | 0.22 ± 0.06 µM | 2.6 ± 0.32 µM | – | – | 160 ± 17 µM | – | – | – | – | COc1ccc2sc(CCc3c(CCc4ccc(Cl)cc4)c4cc(C(=O)OCc5ccc(Cl)cc5)ccc4n3CCc3nn[nH]n3)nc2c1 [Compound 70, 4-Chlorobenzyl 1-(2-(2H-tetrazol-5-yl)ethyl)-3-(4-chlorophenethyl)-2-(2-(5-methoxybenzo-[d]thiazol-2-yl)ethyl)-1H-indole-5-carboxylate] | 310 ± 27 µM |
| – | 1.6 ± 0.37 µM | 0.35 ± 0.15 µM | 1.3 ± 0.37 µM | – | – | 12 ± 1.4 µM | 42 ± 5.8 µM | 0.92 ± 0.06 µM | 12 ± 1.3 µM | – | O=C(NCc1ccc(F)cc1)c1ccc2c(c1)c(CCc1ccc(F)cc1)c(CCc1nc3ccccc3s1)n2CCc1nn[nH]n1 [Compound 44, 1-(2-(2H-tetrazol-5-yl)ethyl)-2-(2-(benzo[d]thiazol-2-yl)ethyl)-N-(4-fluorobenzyl)-3-(4-fluoro-phenethyl)-1H-indole-5-carboxamide] | 42 ± 5.8 µM |
| – | 4.1 ± 1.1 µM | – | – | – | – | 3.1 ± 1.8 µM | 11 ± 2.3 µM | – | 4.3 ± 1.2 µM | 3.2 µM | COC(=O)c1ccc2c(c1)c(CCc1ccc(Cl)cc1)c(CCc1nc3cc(OC)ccc3s1)n2CCc1nn[nH]n1 [Compound 35, Methyl 1-(2-(2H-tetrazol-5-yl)ethyl)-3-(4-chlorophenethyl)-2-(2-(5-methoxybenzo[d]thiazol-2-yl)ethyl)-1H-indole-5-carboxylate] | 13 ± 5.9 µM |
| – | 7.2 ± 0.77 µM | 7.4 ± 0.23 µM | 13 ± 1.3 µM | 36 ± 3.9 µM | 44 ± 5.4 µM | – | – | – | – | – | Cc1ccc(CCc2c(-c3ccsc3)n(CCc3nn[nH]n3)c3ccc(C(=O)NCc4ccon4)cc23)cc1 [Compound 93, 1-(2-(2H-tetrazol-5-yl)ethyl)-N-(isoxazol-3-ylmethyl)-3-(4-methylphenethyl)-2-(thiophen-3-yl)-1H-indole-5-carboxamide] | – |
| 50 ± 5.7 µM | 10 ± 1.6 µM | – | – | 81 ± 17 µM | – | – | – | – | – | – | Cc1ccc(CCc2c(-c3ccsc3)n(CCc3nn[nH]n3)c3ccc(C(=O)NOC4CCCCO4)cc23)cc1 (centres unmarked) [Compound 92, 1-(2-(2H-tetrazol-5-yl)ethyl)-3-(4-methylphenethyl)-N-((tetrahydro-2H-pyran-2-yl)oxy)-2-(thiophen-3-yl)-1H-indole-5-carboxamide] | – |
| – | 0.93 ± 0.092 µM | 4.7 ± 0.28 µM | – | 14 ± 1.9 µM | 18 ± 2.8 µM | – | – | – | – | – | COc1ccc2sc(CCc3c(CCc4ccc(Cl)cc4)c4cc(C(=O)NCc5csc(C)n5)ccc4n3CCc3nn[nH]n3)nc2c1 [Compound 60, 1-(2-(2H-tetrazol-5-yl)ethyl)-3-(4-chlorophenethyl)-2-(2-(5-methoxybenzo[d]thiazol-2-yl)ethyl)-N-((2-methylthiazol-4-yl)methyl)-1H-indole-5-carboxamide] | – |
| – | 0.97 ± 0.39 µM | 0.7 ± 0.02 µM | – | 14 ± 2.2 µM | 12 ± 1.9 µM | – | – | – | – | – | O=C(NCc1ccc(Cl)cc1)c1ccc2c(c1)c(CCc1ccc(F)cc1)c(CCc1nc3ccccc3s1)n2CCc1nn[nH]n1 [Compound 45, 1-(2-(2H-tetrazol-5-yl)ethyl)-2-(2-(benzo[d]thiazol-2-yl)ethyl)-N-(4-chlorobenzyl)-3-(4-fluoro-phenethyl)-1H-indole-5-carboxamide] | – |
| – | – | – | – | – | – | 69 ± 11 µM | – | – | – | – | COC(=O)c1ccc2c(c1)c(CCc1ccc(Cl)cc1)c(CCc1nc3ccccc3[nH]1)n2CCc1nn[nH]n1 [Compound 34, Methyl 2-(2-(1H-benzo[d]imidazol-2-yl)ethyl)-1-(2-(2H-tetrazol-5-yl)ethyl)-3-(4-chlorophenethyl)-1H-indole-5-carboxylate] | 120 ± 44 µM |
| – | 3.6 ± 0.35 µM | 2.8 ± 0.17 µM | – | 19 ± 1.6 µM | 24 ± 2.8 µM | – | – | – | – | – | COc1ccc2sc(CCc3c(CCc4ccc(Cl)cc4)c4cc(C(=O)NCc5ccncn5)ccc4n3CCc3nn[nH]n3)nc2c1 [Compound 57, 1-(2-(2H-tetrazol-5-yl)ethyl)-3-(4-chlorophenethyl)-2-(2-(5-methoxybenzo[d]thiazol-2-yl)ethyl)-N-(pyrimidin-4-ylmethyl)-1H-indole-5-carboxamide] | – |
| – | 2.9 ± 0.5 µM | 5.1 ± 0.42 µM | – | 13 ± 1.7 µM | 20 ± 2.7 µM | – | – | – | – | – | COc1ccc2sc(CCc3c(CCc4ccc(Cl)cc4)c4cc(C(=O)NCc5ccccn5)ccc4n3CCc3nn[nH]n3)nc2c1 [Compound 55, 1-(2-(2H-tetrazol-5-yl)ethyl)-3-(4-chlorophenethyl)-2-(2-(5-methoxybenzo[d]thiazol-2-yl)ethyl)-N-(pyridin-2-ylmethyl)-1H-indole-5-carboxamide] | – |
| – | 1.9 ± 0.14 µM | 3 ± 0.24 µM | – | 11 ± 1.5 µM | 11 ± 1.7 µM | – | – | – | – | – | COc1ccc2sc(CCc3c(CCc4ccc(Cl)cc4)c4cc(C(=O)NCc5ccccc5N(C)C)ccc4n3CCc3nn[nH]n3)nc2c1 [Compound 54, 1-(2-(2H-tetrazol-5-yl)ethyl)-3-(4-chlorophenethyl)-N-(2-(dimethylamino)benzyl)-2-(2-(5-methoxybenzo[d]thiazol-2-yl)ethyl)-1H-indole-5-carboxamide] | – |
| – | 2 ± 0.29 µM | 7.6 ± 0.94 µM | – | 19 ± 1.8 µM | 12 ± 1.8 µM | – | – | – | – | – | COc1ccc2sc(CCc3c(CCc4ccc(Cl)cc4)c4cc(C(=O)NCc5cnccn5)ccc4n3CCc3nn[nH]n3)nc2c1 [Compound 58, 1-(2-(2H-tetrazol-5-yl)ethyl)-3-(4-chlorophenethyl)-2-(2-(5-methoxybenzo[d]thiazol-2-yl)ethyl)-N-(pyrazin-2-ylmethyl)-1H-indole-5-carboxamide] | – |
